Source: patent publication US11352400B2, “PI3K gamma inhibitor peptide for treatment of respiratory system diseases” (Kither Biotech S.r.I., priority 2014, dated 2022)

Tests used:
[1] = tested on: β2-AR/cAMP signaling; assay: FRET imaging of cAMP (ICUE3 probe) in hBSMCs after β2-AR stimulation; format: cell-based, human; conditions: hBSMCs pre-treated 50 μM, 30 minutes; ISO 100 nM + CGP-20712A 100 nM
Description: Human bronchial smooth muscle cells (hBSMCs) were transfected with a plasmid encoding the FRET probe for cAMP, ICUE3 (described in the U.S. Pat. No. 8,236,523 B2) (2), by electroporation with a Nucleofector device (AMAXA, Gaithersburg, Md.), according to the manufacturer's protocol. Briefly, 1×10^6 cells were re-suspended in 100 μL of nucleofection solution (VPI-1004, AMAXA, Gaithersburg, Md.), mixed with 1 μg of pcDNA3-ICUE3 (described in U.S. Pat. No. 8,236,523 B2), and subjected to electroporation in a nucleofection apparatus of Amaxa Biosystems (Program A-033). Live cell imaging experiments were performed at 24 hours after transfection.
Measurements of cAMP levels were performed on human bronchial smooth muscle cells (hBSMCs) that express the FRET probe ICUE3, as described previously (2). Briefly, cells were maintained in a K^+-Ringer solution containing (in mmol/L) 121.6 NaCl, 5.4 KCl, 1.8 MgCl2, 1.8 CaCl2, 4 NaHCO3, 0.8 NaH2PO4, 5 D-glucose, 5 sodium pyruvate, 10 HEPES, at pH 7.4. […] FRET efficiency was calculated using the “Method 3” provided by the Leica wizard application for FRET imaging and sensitized emission, according to which: EA(i)=B/A, where EA(i) is the apparent FRET efficiency; A and B are the intensities of the CFP channel and FRET, respectively. […]

[2] = tested on: hBSMCs; assay: Measurements of calcium transients (Indo-1) in hBSMCs; format: cell-based, human; conditions: 50 μM, 30 minutes, 40 mM KCl depolarizing solution
Description: Cells were washed with a Tyrode solution containing (in mmol/L): 5 HEPES, 154 NaCl, 4 KCl, 2 CaCl2, 1 MgCl2, 5.5 D-glucose, at pH 7.35 and placed on an inverted microscope. Cells were kept in Tyrode solution and treated with a KCl depolarizing solution containing (in mmol/L): 5 HEPES, 118 NaCl, 40 KCl, 2 CaCl2, 1 MgCl2, 5.5 D-glucose, at pH 7.35. Calcium transients were analyzed as the ratio of fluorescence signals measured at 400 nm and 490 nm following excitation of Indo-1-AM-loaded cells at 350 nm. Experiments were recorded and analyzed with Igor® Software, using the functions added by Jason Rothman (Neuromatic, www.thinkrandom.com).

[3] = tested on: wild-type CFTR; assay: Chloride currents in Ussing chamber, NuLi-1 cells; format: cell-based, human; conditions: peptide 10-30 μM, P1 30 μM
Description: (§1) Human airway epithelial cell lines expressing a wild-type CFTR (NuLi-1) or with the ΔF508 mutation (CuFi-1) were purchased from ATCC (NuLi-1 product code: ATCC® CRL-4011™; CuFi-1 product code: ATCC® CRL-4013™). Cells were cultured in Dulbecco's Modified Eagle Medium (DMEM, Gibco, Carlsbad, Calif.) supplemented with 10% fetal bovine serum (FBS), 30 μg/mL of penicillin, 100 μg/mL of streptomycin and 300 μg/mL hygromycin B (Gibco, Carlsbad, Calif.).
(§2) To measure chloride currents in normal and ΔF508 primary human bronchial epithelial cells, cells were cultured on 1.12 cm^2 Snapwell inserts. Filters were mounted in Ussing chambers, and a chloride gradient was applied by incubating the cells in a basolateral high-chloride buffer containing (in mmol/L): 140 NaCl, 5 KCl, 0.36 K2HPO4, 0.44 KH2PO4, 1.3 CaCl2, 0.5 MgCl2, 4.2 NaHCO3, 10 HEPES, and 10 glucose, at pH 7.4 and an apical low-chloride buffer containing (in mmol/L): 133.3 Na-gluconate, 5 K-gluconate, 2.5 NaCl, 0.36 K2HPO4, 0.44 KH2PO4, 5.7 CaCl2, 0.5 MgCl2, 4.2 NaHCO3, 10 HEPES, and 10 mannitol, at pH 7.4. Buffers were aerated with a mixture of 95% O2 and 5% CO2 and the temperature was maintained at 37° C. during the experiment. […] After a stabilization period of 30 minutes, drugs were added at specific times, while the current was continuously recorded.

[4] = tested on: ΔF508-CFTR; assay: Chloride currents in Ussing chamber, CuFi-1 cells; format: cell-based, human; conditions: CuFi-1 cells corrected with VX-809 (20 μM, 24 hours); P1 10 μM, VX-770 10 μM
Description: as §1, §2

[5] = molecular target: T1, association of PI3Kγ with PKA RII (Homo sapiens, UniProt P13861); conditions: in vitro, previous study (1); cited from earlier work
T1 construct: the regulatory subunit of PKA (PKA RII) was immunoprecipitated by incubating the protein extract; expressed in transfected cells; host or cells: HEK293 (ATCC CRL-1573) transfected with pcDNA3.1-PI3Kγ; PKA RII endogenous
T1 sequence (P13861 whole entry): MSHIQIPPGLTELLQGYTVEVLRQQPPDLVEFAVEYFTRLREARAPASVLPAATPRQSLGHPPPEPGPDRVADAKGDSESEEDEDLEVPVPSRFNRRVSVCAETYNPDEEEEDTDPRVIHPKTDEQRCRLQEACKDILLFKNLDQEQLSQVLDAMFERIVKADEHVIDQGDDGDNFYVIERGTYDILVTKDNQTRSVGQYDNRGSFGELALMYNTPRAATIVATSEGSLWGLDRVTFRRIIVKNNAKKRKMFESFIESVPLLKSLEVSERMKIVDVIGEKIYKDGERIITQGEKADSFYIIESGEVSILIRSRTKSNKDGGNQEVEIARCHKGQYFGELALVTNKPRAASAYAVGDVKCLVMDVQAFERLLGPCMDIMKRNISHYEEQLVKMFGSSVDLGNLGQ

[6] = tested on: PI3Kγ-bound phosphodiesterase 3B; conditions: in vitro, previous study (1); cited from earlier work

| Sequence | increase of cAMP accumulation following stimulation of β2-ARs [1] | influx of Ca2+ induced by KCl (through VOCCs) [2] | CFTR-dependent Cl− currents [3] | CFTR activity in the presence of VX-770 [4] | PKA anchoring (PI3Kγ-PKA interaction) [5] | activity of PI3Kγ-bound phosphodiesterase 3B [6] |
| --- | --- | --- | --- | --- | --- | --- |
| RQIKIWFQNRRMKWKK (Antennapedia penetratin 1) [P1 control peptide, cell-penetrating Penetratin 1 of Antennapedia, used as control peptide, reference compound] | unchanged | unchanged | did not change | did not change | – | – |
| KATHRSPGQIHLVQRHPPSEESQAF (homo sapiens) [SEQ ID No.: 1] | – | – | – | – | inhibits | decreases |
